Each structure is given as a SMILES string.

For the assay, the target named is human LSD1 (Homo sapiens (Human), UniProt O60341). Description: Evaluation of enzyme activity: LSD1 fluorescence coupling enzyme assay (HRP/Amplex Red). Format: biochemical. To be noted: human LSD1, histone H3(1-21)K4me2 peptide 10 μM, 30 min pre-incubation. On the procedure: The purpose of this test is to test the in vitro inhibitory activities of the compounds against LSD1. The enzyme used in this experiment was human LSD1, and the standard substrate was histone H3(1-21)K4me2 peptide (10 μM). HCI-2509 (SP2509) was used as reference compound, and the fluorescence coupling enzyme assay was employed. The production of FAD-dependent H2O2 as a result of demethylase activity of LSD1 was measured by coupling with HRP and Amplex Red. Compounds as well as control compound HCl-2509 were tested in 10-dose IC50 mode with a 3-fold serial dilution in duplicate starting at 10 μm. All compounds were pre-incubated 30 mins with enzyme before added substrate to start reaction. Fluorescence measurement: Ex/Em=535/590 by EnVision.
The test compound's inhibitory activities against LSD11 was classified as: + for IC50≤50 nM; ++ for IC50>50 nM and ≤100 nM; +++ for IC50>100 nM and ≤500 nM, and the results are shown in Table 1.
As to `O=C(O)c1ccc2c(c1)CN(CC1(CN[C@H]3C[C@@H]3c3ccccc3)CC1)C2` [Example 99], the IC50 lay in the range of 100 to 500 nM. To `O=C(O)c1ccc(-c2nc(C3(CN[C@H]4CC4c4ccccc4)CC3)no2)cn1` (stereo partly shown) [Example 102] belongs 100 to 500 nM; to `O=C(O)c1ccc(N2CCC(c3nc(C4(CN[C@H]5C[C@@H]5c5ccccc5)CC4)no3)CC2)cc1` [Example 103], 100 to 500 nM; to `O=C(O)c1ccc(N2CCC(c3nc(C4(CN[C@H]5CC5c5ccccc5)CC4)no3)CC2)cn1` (stereo partly shown) [Example 104], ≤ 50 nM. In the case of `CC(=O)N1CCC(c2nc(C3(CN[C@H]4C[C@@H]4c4ccccc4)CC3)no2)CC1` [Example 105] it was 50 to 100 nM; in that of `CS(=O)(=O)n1cc2c(n1)CN(CC1(CN[C@H]3C[C@@H]3c3ccccc3)CC1)C2` [Example 106], 100 to 500 nM. To `O=C(O)c1ccc(C(=O)N2CCC(c3nc(C4(CN[C@H]5C[C@@H]5c5ccccc5)CC4)no3)CC2)cc1` [Example 107] belongs 100 to 500 nM; to `CN(C)[C@H]1CC[C@H](c2nc(C3(CN[C@H]4C[C@@H]4c4ccccc4)CC3)no2)CC1` [Example 108], 100 to 500 nM. As to `Cn1cc2c(n1)CN(CC1(CN[C@H]3CC3c3ccccc3)CC1)C2` (stereo partly shown) [Example 109], the IC50 is ≤ 50 nM.

In the case of `Cn1ncc2c1CN(CC1(CN[C@H]3CC3c3ccccc3)CC1)C2` (stereo partly shown) [Example 110], the IC50 is ≤ 50 nM. Take `O=C(O)[C@H](Cc1ccccc1)NCC1(CN[C@@H]2C[C@H]2c2ccccc2)CC1` [Example 112]: the IC50 was in the range of 100 to 500 nM. Molecule `CN(C)[C@H]1CC[C@H](c2nc(C3(CN[C@@H]4C[C@H]4c4ccccc4)CC3)no2)CC1` [Example 115] gave an IC50 of 100 to 500 nM. Turning to `c1ccc(C2C[C@@H]2NCC2(c3cccnc3)CCC2)cc1` (stereo partly shown) [Example 119], the IC50 is ≤ 50 nM. As for `c1ccc(C2C[C@@H]2NCC2(c3ccccc3)CCCC2)cc1` (stereo partly shown) [Example 121], the IC50 is ≤ 50 nM. As for `c1ccc(C2C[C@@H]2NCC2(c3ccccc3)CCC2)cc1` (stereo partly shown) [Example 122], the IC50 is ≤ 50 nM. As for `Clc1ccc(C2(CN[C@H]3CC3c3ccccc3)CCC2)cc1` (stereo partly shown) [Example 123], the IC50 was ≤ 50 nM. To `c1ccc(C2C[C@@H]2NCC2(c3noc(-c4ccccn4)n3)CCC2)cc1` (stereo partly shown) [Example 125] belongs ≤ 50 nM; to `FC(F)(F)c1ccnc(-c2nc(C3(CN[C@H]4CC4c4ccccc4)CCC3)no2)c1` (stereo partly shown) [Example 126], ≤ 50 nM; to `c1ccc([C@H]2C[C@@H]2NCC2(c3noc(-c4cncnc4)n3)CCC2)cc1` [Example 128], 50 to 100 nM.

Turning to `c1ccc(C2C[C@@H]2NCC2(c3noc(-c4cccnc4)n3)CCC2)cc1` (stereo partly shown) [Example 130], the IC50 is ≤ 50 nM. Consider `FC(F)(F)c1cc(-c2nc(C3(CN[C@H]4CC4c4ccccc4)CCC3)no2)ccn1` (stereo partly shown) [Example 131], for which the IC50 was ≤ 50 nM.

In the case of `O=C(O)c1ccccc1-c1nc(C2(CN[C@H]3C[C@@H]3c3ccccc3)CCC2)no1` [Example 134], the IC50 lay in the range of 100 to 500 nM.

Regarding `O=C(O)c1cccc(-c2nc(C3(CN[C@H]4CC4c4ccccc4)CCC3)no2)c1` (stereo partly shown) [Example 135], the IC50 lay within 100 to 500 nM. In the case of `c1ccc(C2C[C@@H]2NCC2(c3noc(-c4ccc(-n5cnnc5)cc4)n3)CCC2)cc1` (stereo partly shown) [Example 136] it was ≤ 50 nM. `c1ccc([C@H]2C[C@@H]2NCC2(c3cc([C@H]4CCCNC4)on3)CCC2)cc1` [Example 138] showed an IC50 of 50 to 100 nM. Molecule `c1ccc([C@H]2C[C@@H]2NCC2(c3noc([C@@H]4CCCNC4)n3)CC2)cc1` [Example 139] showed an IC50 of 50 to 100 nM.

With `N[C@H]1CCC[C@@H](c2nc(C3(CN[C@@H]4C[C@H]4c4ccccc4)CC3)no2)C1` [Example 148], the IC50 is ≤ 50 nM. Consider `O=C(O)[C@H]1C[C@@H](c2nc(C3(CN[C@@H]4C[C@H]4c4ccccc4)CC3)no2)C1` [Example 150], for which the IC50 was ≤ 50 nM. In the case of `N[C@@H](Cc1nc(C2(CN[C@@H]3C[C@H]3c3ccccc3)CC2)no1)C(=O)O` [Example 152] it was 100 to 500 nM.

Consider `CC(C)[C@H](N)c1nc(C2(CN[C@@H]3C[C@H]3c3ccccc3)CC2)no1` [Example 154], for which the IC50 is 100 to 500 nM.

`NC1CCN(C(=O)c2nc(C3(CN[C@@H]4C[C@H]4c4ccccc4)CC3)no2)CC1` [Example 160]: the IC50 is ≤ 50 nM. Turning to `O=C(O)c1ccc(CN2CCC(Cc3nc(C4(CN[C@H]5CC5c5ccccc5)CC4)no3)CC2)cc1` (stereo partly shown) [Example 164], the IC50 was ≤ 50 nM. To `O=C(O)c1ccc(CN2CCC(c3nc(C4(CN[C@@H]5C[C@H]5c5ccccc5)CC4)no3)CC2)cc1` [Example 169] belongs 50 to 100 nM; to `O=C(O)c1ccc(CN2CCC(c3nc(C4(CN[C@H]5C[C@@H]5c5ccccc5)CC4)no3)CC2)cc1` [Example 170], 100 to 500 nM. For `COC(=O)[C@H]1CC[C@H](c2nc(C3(CN[C@H]4C[C@@H]4c4ccccc4)CC3)no2)CC1` [Example 172], the IC50 was ≤ 50 nM. Consider `O=C(O)C1CC2(C1)CC(c1nc(C3(CN[C@H]4CC4c4ccccc4)CC3)no1)C2` (stereo partly shown) [Example 173], for which the IC50 was in the range of 100 to 500 nM. In the case of `O=C(O)[C@H]1CC[C@@H](c2nc(C3(CN[C@H]4C[C@@H]4c4ccccc4)CC3)no2)CC1` [Example 175] it was 100 to 500 nM; in that of `O=C(O)C12CCC(c3nc(C4(CN[C@H]5C[C@@H]5c5ccccc5)CC4)no3)(CC1)CC2` [Example 177], 100 to 500 nM. In the case of `O=C(O)c1ccc(-c2nc(C3(CN[C@H]4CC4c4ccccc4)CC3)no2)cc1` (stereo partly shown) [Example 181] it was ≤ 50 nM; in that of `Fc1ccccc1-c1nc(C2(CN[C@H]3CC3c3ccccc3)CC2)no1` (stereo partly shown) [Example 185], ≤ 50 nM.

For `Cc1oc(C2(CN[C@H]3C[C@@H]3c3ccccc3)CCC2)nc1C(=O)O` [Example 186], the IC50 was 100 to 500 nM. In the case of `Fc1ccc(-c2nc(C3(CN[C@H]4CC4c4ccccc4)CCC3)no2)c(F)c1` (stereo partly shown) [Example 187], the IC50 is ≤ 50 nM.

For `O=C(O)c1ccc(-c2nc(C3(CN[C@H]4CC4c4ccccc4)CCC3)no2)cc1` (stereo partly shown) [Example 188], the IC50 is ≤ 50 nM.

With `CC(C)Oc1ccc(-c2nc(C3(CN[C@H]4CC4c4ccccc4)CCC3)no2)cc1C#N` (stereo partly shown) [Example 189], the IC50 is ≤ 50 nM. As to `N#Cc1cc(F)cc(-c2nc(C3(CN[C@H]4CC4c4ccccc4)CCC3)no2)c1` (stereo partly shown) [Example 190], the IC50 is ≤ 50 nM. As for `Fc1cc(F)c(-c2nc(C3(CN[C@H]4CC4c4ccccc4)CCC3)no2)c(F)c1` (stereo partly shown) [Example 191], the IC50 was ≤ 50 nM.

Molecule `Cc1sc(C2(CN[C@H]3CC3c3ccccc3)CCC2)nc1C(=O)O` (stereo partly shown) [Example 194] displayed an IC50 of 100 to 500 nM. `O=C(O)c1ccc(CNC2(CN[C@H]3C[C@@H]3c3ccccc3)CC2)cc1` [Example 200] came in with an IC50 of 100 to 500 nM. In turn, `CC1(C)CCN(CC2(CN[C@H]3C[C@@H]3c3ccccc3)CC2)C1` [Example 202] had an IC50 of 50 to 100 nM. `O=C(O)c1ccc(CN2CC(c3nc(C4(CN[C@H]5C[C@@H]5c5ccccc5)CC4)no3)C2)cc1` [Example 205] gave an IC50 of 100 to 500 nM. For the molecule `N[C@H]1CC[C@@H](c2nc(C3(CN[C@@H]4C[C@H]4c4ccccc4)CCC3)no2)CC1` [Example 209], the IC50 was ≤ 50 nM. The molecule `c1ccc([C@H]2C[C@@H]2NCC2(CN3CCC3)CC2)cc1` [Example 211] returned an IC50 of 50 to 100 nM. For the molecule `C[C@H]1CCCN1CC1(CN[C@H]2C[C@@H]2c2ccccc2)CC1` [Example 212], the IC50 fell in the range of 100 to 500 nM. With `O=C(O)c1ccc(CN2CCC(c3nc(C4(CN[C@H]5C[C@@H]5c5ccccc5)CC4)no3)C2)cc1` (stereo partly shown) [Example 215], the IC50 fell in the range of 100 to 500 nM. On to `CN1CCC(c2nc(C3(CN[C@H]4C[C@@H]4c4ccccc4)CC3)no2)CC1=O` (stereo partly shown) [Example 218], for which the half-maximal inhibitory concentration (IC50) was in the range of 100 to 500 nM. Molecule `C[C@@H]1CN(CC2(CN[C@H]3CC3c3ccccc3)CC2)[C@@H](C)CN1C` (stereo partly shown) [Example 221] came in with an IC50 of 100 to 500 nM.

Molecule `O=C(O)[C@@H]1CCN1CC1(CN[C@@H]2C[C@H]2c2ccccc2)CC1` [Example 228] came in with an IC50 of 100 to 500 nM. For `c1ccc([C@@H]2C[C@H]2NCC2(c3noc(C4CCNCC4)n3)CC2)cc1` [Example 231], the IC50 was in the range of 50 to 100 nM.

For the molecule `NC[C@H]1CC[C@H](c2nc(C3(CN[C@@H]4C[C@H]4c4ccccc4)CC3)no2)CC1` [Example 239], the IC50 is ≤ 50 nM. Turning to `N[C@H]1CC[C@H](Cc2nc(C3(CN[C@@H]4C[C@H]4c4ccccc4)CC3)no2)CC1` [Example 240], the concentration for half-maximal inhibition (IC50) is 50 to 100 nM. In turn, `N[C@H]1CC[C@H](c2nnc(C3(CN[C@@H]4C[C@H]4c4ccccc4)CC3)o2)CC1` [Example 243] gave an IC50 of 100 to 500 nM. As to `CC1(N)CCC(c2nc(C3(CN[C@@H]4C[C@H]4c4ccccc4)CC3)no2)CC1` (stereo partly shown) [Example 245], the IC50 was ≤ 50 nM.

On to `O=C(O)C1CCN(c2nc(C3(CN[C@@H]4C[C@H]4c4ccccc4)CC3)no2)CC1` [Example 253], for which the IC50 lay in the range of 100 to 500 nM. On to `C/C(=N\NC(=O)c1cccc(S(=O)(=O)N2CCOCC2)c1)c1cc(Cl)ccc1O` [HCI-2509, reference compound], for which the IC50 is ≤ 50 nM.

The values above are taken from patent publication US11433053B2, “LSD1 inhibitor and preparation method and application thereof” (CSPC ZHONGQI PHARMACEUTICAL TECHNOLOGY (SHIJIAZHUANG) CO., …, priority 2017, dated 2022).
